Measured values taken from paper PMC10498667 (Chemical Science, 2023).

Tests used:
Aβ40 = molecular target: T1, Aβ40 (Homo sapiens, UniProt P05067); experiment: Aβ40 aggregation inhibition experiments (gel/western blot, TEM); type: biochemical; settings: flavonoid 50 μM, 24 h
T1 construct: Ab40 ([…]-; purchased Peptide Institute, Inc. (Osaka, Japan)
Description: To verify whether a series of nine flavonoids can modulate the aggregation of Aβ with and without metal ions, the molecular weight (MW) distribution and morphology of the resultant Aβ species were determined by gel electrophoresis with western blotting (gel/western blot) using an anti-Aβ antibody (6E10) and transmission electron microscopy (TEM), respectively. Two types of experiments were carried out employing two major Aβ isoforms, i.e., Aβ42 and Aβ40:[25] (i) inhibition studies to identify the effect of 1–5, 1a, 1b, 4a, and 4b on the formation of Aβ aggregates; (ii) disaggregation studies to evaluate if the flavonoids with reactivities towards Aβ aggregation in inhibition studies can disassemble preformed Aβ aggregates or modulate their further aggregation, as illustrated in Fig. 4 and S5–S9. ^† Moreover, the solutions containing the flavonoids and Cu(II) were probed by electronic absorption (Abs) spectroscopy to monitor their metal binding. […] As expected, no Abs change of 1a and 4a composed of methoxy groups on the A ring was detected by addition of Cu(II). […]
(§1) Ab Aggregation Experiments. Ab was dissolved in ammonium hydroxide [1% w/w NH4OH (aq)] and the resulting solution was aliquoted, lyophilized overnight, and stored at –80 °C. A stock solution of Ab was then prepared by dissolving the lyophilized peptide with NH4OH (1% w/w, aq; 10 µL) and diluting with ddH2O. All Ab samples were prepared following previously reported procedures.21,22 The concentration of the peptide solution was determined by measuring its […]
(§2) solution (20 mM HEPES, pH 7.4, 150 mM NaCl) was used for preparing Ab samples. For the inhibition studies, flavonoids (final concentration, 50 µM; 1% v/v DMSO) were added to the samples of Ab (25 µM) in the absence and presence of CuCl2 or ZnCl2 (25 µM) followed by incubation for 24 h at 37 °C with constant agitation. For the disaggregation studies, Ab (25 µM) was incubated with and without CuCl2 or ZnCl2 (25 µM) for 24 h at 37 °C with constant agitation to generate preformed Ab aggregates. The resultant Ab aggregates were then treated with flavonoids (50 µM) and incubated for additional 24 h with constant agitation. For the additional disaggregation experiments, preformed Ab42 aggregates (25 µM) or Ab42 seeds (10% v/v) with or without metal ions (25 µM for CuCl2 and ZnCl2) were incubated with flavonoids (50 µM) for 24 h with constant agitation. The resultant Ab aggregates were then treated with freshly prepared Ab42 […]
(§3) (25 µM) and incubated for additional 24 h with constant agitation.
(§4) Gel/Western Blot. The resultant Ab species from the aggregation experiments were analyzed by gel/Western blot using an anti-Ab antibody (6E10, Covance, Princeton, NJ, USA).21,22 Each sample (10 µL) was separated on a 10–20% tricine gel (Invitrogen). Following separation, the proteins were transferred onto nitrocellulose membranes and blocked with bovine serum albumin (BSA, 3% w/v; Sigma-Aldrich) in Tris-buffered saline (TBS) containing 0.1% v/v Tween-20 (Sigma-Aldrich) (TBS-T) for 4 h at room temperature or overnight at 4 °C. The membranes were incubated with 6E10 (1:2,000) in the solution of BSA (2% w/v in TBS-T) for 4 h at room temperature. […] A homemade ECL kit21–23 was used to visualize gel/Western blots on a ChemiDoc MP Imaging System (Bio-Rad).
TEM. Samples for TEM were prepared following previously reported methods.22,24 Glow-discharged grids (Formvar/Carbon 300-mesh; Electron Microscopy Sciences, Hatfield, PA, USA) were treated with Ab samples (25 µM; 7.5 µL) for 2 min at room temperature. Excess sample was removed using filter paper followed by washing with ddH2O (3x). Each grid incubated with uranyl […]

[1] = system: human neuroblastoma SH-SY5Y (5Y) cells; experiment: Cellular ROS detection assay (prooxidant activity); type: cell-based
Description: Cellular ROS Detection Assay. The prooxidant activity of flavonoids in living cells was measured by a cellular ROS detection assay kit (Abcam) following the manufacturer ’s protocol. The human neuroblastoma 5Y cells were maintained in media containing 50% v/v Dulbecco's Modified Eagle Medium and 50% v/v Nutrient Mixture F12 (phenol red-free DMEM/F12; GIBCO, Grand Island, NY, USA) supplemented with 10% v/v fetal bovine serum (GIBCO) and 100 U/mL penicillin-streptomycin (GIBCO). The cells were grown and maintained at 37 °C in a humidified atmosphere with 5% CO2. Cells were seeded in a 96-well plate (50,000 cells/100 µL). After 24 h incubation, a ROS-staining working solution (100 µL) was added to each well and the plate was incubated for 1 h at 37 °C. Cells were then treated with the samples {[flavonoid] = 0.01, 0.1, 0.5, and 1 mM (1% v/v DMSO)}. The cellular ROS levels upon the treatment of samples were measured based on the fluorescence intensity (lex/lem = 520/605 nm) of the wells that was detected after 2 h incubation and calculated, relative to that of the cells containing an equivalent amount of DMSO.
All experiments were performed in triplicate.

Aβ42 = molecular target: T2, Aβ42 (Homo sapiens, UniProt P05067); experiment: Additional disaggregation experiments (preformed aggregates or seeds with Aβ monomers); type: biochemical; settings: metal-free Aβ42 and metal–Aβ42; flavonoid 50 μM
T2 construct: purchased Peptide Institute, Inc. (Osaka, Japan)
T2 sequence (P05067 672-713 limits assumed): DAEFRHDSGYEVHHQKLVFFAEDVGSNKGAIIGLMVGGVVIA
Description: To probe the secondary nucleation of disassembled Aβ aggregates induced by the flavonoids on Aβ monomers, additional disaggregation experiments were conducted by incubating preformed aggregates of metal-free and metal-treated Aβ or their seeds with Aβ monomers. […] These indications describe the significance of three hydroxyl groups on the A ring in the flavonoid structure to impact the aggregation of metal-free Aβ and metal–Aβ. […]
as §1
solution (20 mM HEPES, pH 7.4, 150 mM NaCl) was used for preparing Ab samples. […]
as §2, with “For” for “solution (20 mM HEPES, pH 7.4, 150 mM NaCl) was used for preparing Ab samples. For the inhibition studies, flavonoids (final concentration, 50 µM; 1% v/v DMSO) were added to the samples of Ab (25 µM) in the absence and presence of CuCl2 or ZnCl2 (25 µM) followed by incubation for 24 h at 37 °C with constant agitation. For”
as §3, §4
TEM. […]
Cu(II)-binding Studies. The interaction of flavonoids with Cu(II) was detected by Abs spectroscopy in 20 mM HEPES, pH 7.4, 150 mM NaCl. […] The mixture solution was allowed to equilibrate for 5 min after the addition of CuCl2 at room temperature before the spectra were recorded. […]

15N-labeled Aβ40 = molecular target: T3, 15N-labeled Aβ40 (Homo sapiens, UniProt P05067); experiment: 2D SOFAST-HMQC NMR with 15N-labeled Aβ40; type: binding; settings: 15N-Aβ40 33 μM; 6 100 μM; 10 °C
T3 construct: AEDVG SNKGA IIGLM VGGVV; purchased rPeptide (Georgia, GA, USA)
T3 sequence (P05067 672-711 limits assumed): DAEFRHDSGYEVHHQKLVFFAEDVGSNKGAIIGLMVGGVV
Description: 2D 1H−15N SOFAST-HMQC NMR Experiments. […] To remove possible preformed aggregates, the lyophilized peptide was then redissolved in diluted NaOH (pH 10) and passed through a filter (0.22 µm). On the other hand, the stock solution of 15N-labeled Ab42 based on the previous report.27 Briefly, uniformly 15N-labeled Ab42 was solubilized in diluted NaOH (pH 10) at a concentration of ~200 µM. The undissolved precipitates of Ab42 were removed by centrifugation at 40,000 rpm for 1 h. The solution of 15N-labeled Ab (33 µM) was prepared with and without 6 (100 µM; 1% v/v DMSO) in 20 mM HEPES, pH 7.4 (10% v/v D2O) for NMR experiments. All spectra were acquired with 180 scans at 10 °C. Dimensions of the spectra were 1,024 (1H) ´ 128 (15N) points. Experimental data were processed with NMRpipe29 and Sparky 3.115.30 The 1H and 15N assignments of 15N-labeled Ab were determined based on the previous results.21,31 The chemical shift perturbation was calculated following the equation (eq 4).32 Note that DdH and DdN represent the alterations in the chemical shifts of 1H and 15N of 15N-labeled Ab, respectively.

T1 sequence (P05067 672-711 limits assumed): as above

SMILES | morphology of resultant aggregates (TEM) (Aβ40; Cu(II)–Aβ40) | MW distribution of resultant species (gel/western blot) (Aβ40; Cu(II)–Aβ40 and Zn(II)–Aβ40) | morphology of resultant aggregates (TEM) (Aβ40; Zn(II)–Aβ40) | MW distribution of resultant species (gel/western blot) (Aβ40; metal-free Aβ40) | morphology of resultant aggregates (TEM) (Aβ40; metal-free Aβ40) | cellular ROS concentration / prooxidative activity ([1]; 0.01 and 0.1 mM flavonoid) | cellular ROS concentration / prooxidative activity ([1]; 0.5 and 1 mM flavonoid) | MW distribution after incubating treated preformed aggregates or seeds with Aβ monomers (secondary nucleation) (Aβ42) | decrease of overall NMR peak intensity (15N-labeled Aβ40)
O=c1c(-c2ccccc2)coc2cc(O)c(O)c(O)c12 [4b, 5,6,7-trihydroxyisoflavone] | both amorphous and fibrillary aggregates | diverse MW distribution | a bunch of fibrillary species with chopped filamentous aggregates | reduced | shorter and thinner fibrils | no elevation of the cellular ROS concentration | the prooxidative activity was observed | notable variations in the MW distribution | 
O=c1cc(-c2ccccc2)oc2ccc(O)c(O)c12 [compound 3, 5,6-dihydroxyflavone] | both amorphous and fibrillary aggregates |  |  |  |  |  |  | reactivity specifically towards metal–Aβ42 species | 
O=c1cc(-c2ccccc2)oc2cc(O)c(O)c(O)c12 [compound 4, baicalein] | both amorphous and fibrillary aggregates |  |  | reduced | shorter and thinner fibrils |  |  | notable variations in the MW distribution | 
O=c1cc(-c2ccccc2)oc2c(Cl)c(O)c(O)c(O)c12 [compound 5, 8-chlorobaicalein] | chopped filamentous Cu(II)–Aβ40 aggregates |  |  | increased the band intensity | shorter and thinner fibrils |  |  | notable variations in the MW distribution | 
O=c1c(-c2ccc(O)c(O)c2)coc2cc(O)c(O)c(O)c12 [compound 6, 3-(3,4-dihydroxyphenyl)-5,6,7-trihydroxy-4H-chromen-4-one] |  |  |  |  |  | No prooxidative activity | increase in the amount of cellular ROS |  | ca. 10%
